PubChem BioAssay (NCI)
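Grown in 96-well plates, cells were treated for 48 hours with each compound at five concentrations. Insufficient inhibition: endpoint recorded as highest concentration tested. TGI: concentration producing complete growth inhibition.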

Experiments:
Assay in all cases: inhibition of tumour cell growth, NCI panel, 48 h
SF-295 CNS = tested on: SF-295 CNS
UO-31 renal = tested on: UO-31 renal
NCI-H23 lung = tested on: NCI-H23 lung
ACHN renal = tested on: ACHN renal
MCF7 breast = tested on: MCF7 breast
CCRF-CEM leukemia = tested on: CCRF-CEM leukemia
SW-620 colon = tested on: SW-620 colon
MDA-MB-435 = tested on: MDA-MB-435
UACC-257 melanoma = tested on: UACC-257 melanoma
UACC-62 melanoma = tested on: UACC-62 melanoma
HCC-2998 colon = tested on: HCC-2998 colon
PC-3 prostate = tested on: PC-3 prostate
SK-MEL-28 melanoma = tested on: SK-MEL-28 melanoma
HOP-92 NSCLC = tested on: HOP-92 NSCLC
IGROV1 ovarian = tested on: IGROV1 ovarian
M14 melanoma = tested on: M14 melanoma
RXF 393 renal = tested on: RXF 393 renal
HCT-15 colon = tested on: HCT-15 colon
HCT-116 colon = tested on: HCT-116 colon
SF-268 CNS = tested on: SF-268 CNS
A498 renal = tested on: A498 renal
SK-OV-3 ovarian = tested on: SK-OV-3 ovarian
LOX IMVI melanoma = tested on: LOX IMVI melanoma
K-562 leukemia = tested on: K-562 leukemia
SF-539 CNS = tested on: SF-539 CNS
MDA-N = tested on: MDA-N
NCI-H226 lung = tested on: NCI-H226 lung
COLO 205 colon = tested on: COLO 205 colon
EKVX NSCLC = tested on: EKVX NSCLC
OVCAR-3 ovarian = tested on: OVCAR-3 ovarian
CAKI-1 renal = tested on: CAKI-1 renal
OVCAR-4 ovarian = tested on: OVCAR-4 ovarian
TK-10 renal = tested on: TK-10 renal
T-47D breast = tested on: T-47D breast
KM12 colon = tested on: KM12 colon
OVCAR-8 ovarian = tested on: OVCAR-8 ovarian
SN12C renal = tested on: SN12C renal
DU-145 prostate = tested on: DU-145 prostate
SNB-75 CNS = tested on: SNB-75 CNS
SNB-19 CNS = tested on: SNB-19 CNS
MOLT-4 leukemia = tested on: MOLT-4 leukemia
MALME-3M melanoma = tested on: MALME-3M melanoma
786-0 renal = tested on: 786-0 renal
NCI/ADR-RES ovarian = tested on: NCI/ADR-RES ovarian
OVCAR-5 ovarian = tested on: OVCAR-5 ovarian
A549 NSCLC = tested on: A549 NSCLC
BT-549 breast = tested on: BT-549 breast
U251 CNS = tested on: U251 CNS
RPMI-8226 leukemia = tested on: RPMI-8226 leukemia
HT29 colon = tested on: HT29 colon
HS 578T breast = tested on: HS 578T breast
NCI-H522 lung = tested on: NCI-H522 lung
HL-60(TB) leukemia = tested on: HL-60(TB) leukemia
SK-MEL-5 melanoma = tested on: SK-MEL-5 melanoma
SK-MEL-2 melanoma = tested on: SK-MEL-2 melanoma
MDA-MB-231 breast = tested on: MDA-MB-231 breast
NCI-H460 lung = tested on: NCI-H460 lung

C/C(=C\CO)CC[C@@H]1[C@@]2(C)CCCC(C)(C)[C@@H]2CC[C@@]1(C)O
TGI (SF-295 CNS): 33.7 µM | TGI (UO-31 renal): 50.3 µM | TGI (NCI-H23 lung): 40 µM | TGI (ACHN renal): > 100 µM | TGI (MCF7 breast): 30.8 µM | TGI (CCRF-CEM leukemia): 51.5 µM | TGI (SW-620 colon): 50.5 µM | TGI (MDA-MB-435): 34.6 µM | TGI (UACC-257 melanoma): 38 µM | TGI (UACC-62 melanoma): 27.1 µM | TGI (HCC-2998 colon): 29.5 µM | TGI (PC-3 prostate): 30 µM | TGI (SK-MEL-28 melanoma): 43.2 µM | TGI (HOP-92 NSCLC): 32.4 µM | TGI (IGROV1 ovarian): 35.5 µM | TGI (M14 melanoma): 53.6 µM | TGI (RXF 393 renal): 35 µM | TGI (HCT-15 colon): 33.7 µM | TGI (HCT-116 colon): 43.5 µM | TGI (SF-268 CNS): 32.4 µM | TGI (A498 renal): 30.7 µM | TGI (SK-OV-3 ovarian): 57.1 µM | TGI (LOX IMVI melanoma): 30.2 µM | TGI (K-562 leukemia): 34.7 µM | TGI (SF-539 CNS): 32.4 µM | TGI (MDA-N): 38 µM | TGI (NCI-H226 lung): 33.4 µM | TGI (COLO 205 colon): 32.7 µM | TGI (EKVX NSCLC): 51.5 µM | TGI (OVCAR-3 ovarian): 27.6 µM | TGI (CAKI-1 renal): 72.1 µM | TGI (OVCAR-4 ovarian): 34.2 µM | TGI (TK-10 renal): 31.3 µM | TGI (T-47D breast): 51.3 µM | TGI (KM12 colon): 43 µM | TGI (OVCAR-8 ovarian): 31.8 µM | TGI (SN12C renal): 33.8 µM | TGI (DU-145 prostate): 34.3 µM | TGI (SNB-75 CNS): 34.7 µM | TGI (SNB-19 CNS): 42.9 µM | TGI (MOLT-4 leukemia): 69.2 µM | TGI (MALME-3M melanoma): 36.3 µM | TGI (786-0 renal): 39.8 µM | TGI (NCI/ADR-RES ovarian): 31.9 µM | TGI (OVCAR-5 ovarian): 49.3 µM | TGI (A549 NSCLC): 92.7 µM | TGI (BT-549 breast): 32.6 µM | TGI (U251 CNS): 31 µM | TGI (RPMI-8226 leukemia): 36.5 µM | TGI (HT29 colon): 51.2 µM | TGI (HS 578T breast): 56.4 µM | TGI (NCI-H522 lung): 31.4 µM | TGI (HL-60(TB) leukemia): 45.7 µM | TGI (SK-MEL-5 melanoma): 31.8 µM | TGI (SK-MEL-2 melanoma): 31.4 µM | TGI (MDA-MB-231 breast): 31 µM | TGI (NCI-H460 lung): 31.3 µM
